One block for each molecule: values may come before it.
Experiments:
Details in all cases: human, ipsc-cm
[1] = (§1) Electrical activity assay on cell lines treated with a given drug. DMSO was used as a vehicle and a control, unblinded dofetilide was used as a control.
[2] = as §1; remark: listed apart in the source
[3] = as §1; assay type: ADME, cell-based; set-up: FPDc: unit not given here
[4] = as §1; assay type: ADME, cell-based
[5] = as §1; assay type: ADME, cell-based; remark: listed apart in the source
[6] = as §1; remark: listed apart in the source
[7] = 0.03 µM, concentration (um) 0.03 uM
[8] = 0.1 µM, concentration (um) 0.1 uM
[9] = 10 µM, concentration (um) 10 uM
[10] = 100 µM, concentration (um) 100 uM
[11] = 0.09507 µM, concentration (um) 0.0950736 uM
[12] = 0.3004 µM, concentration (um) 0.300433 uM
[13] = 0.9494 µM, concentration (um) 0.949367 uM
[14] = 0.01 µM, concentration (um) 0.01 uM

Structure (SMILES): Cc1nccn1CC1CCc2c(c3ccccc3n2C)C1=O (centres undefined) [ONDANSETRON]
FPD measurement ([1]; 0.03 µM): 1 Values Out Of 1 Were Excluded Due To Quiescence Or 0 Fpdc
FPDc ([1]; 0.03 µM): 1 Values Out Of 1 Were Excluded Due To Quiescence Or 0 Fpdc
FPD measurement ([1]; 0.3 µM): 1 Values Out Of 1 Were Excluded Due To Quiescence Or 0 Fpdc
FPDc ([1]; 0.3 µM): 1 Values Out Of 1 Were Excluded Due To Quiescence Or 0 Fpdc
FPD measurement ([1]; 3 µM): 1 Values Out Of 1 Were Excluded Due To Quiescence Or 0 Fpdc
FPDc ([1]; 3 µM): 1 Values Out Of 1 Were Excluded Due To Quiescence Or 0 Fpdc
FPD measurement ([1]; 30 µM): 1 Values Out Of 1 Were Excluded Due To Quiescence Or 0 Fpdc
FPDc ([1]; 30 µM): 1 Values Out Of 1 Were Excluded Due To Quiescence Or 0 Fpdc
FPD measurement ([2]; 0.03 µM): 54.59 FPDc
FPDc ([2]; 0.03 µM): 54.59
FPD measurement ([2]; 0.3 µM): 58.58 FPDc
FPDc ([2]; 0.3 µM): 58.58
FPD measurement ([2]; 3 µM): 68.22 FPDc
FPDc ([2]; 3 µM): 68.22
FPD measurement ([2]; 30 µM): More Than Half The Wells Had A Quiescence Event Or Fpdc Readings Of 0
FPDc ([2]; 30 µM): More Than Half The Wells Had A Quiescence Event Or Fpdc Readings Of 0
FPD measurement [3, 7]: 5 Values Out Of 5 Were Excluded Due To Quiescence Or 0 Apdc
FPDc [3, 7]: 29.28
FPDc ([3]; 0.3 µM, concentration (um) 0.3 uM): 58.03
FPDc ([3]; 3 µM, concentration (um) 3 uM): 37.01
FPDc ([3]; 30 µM, concentration (um) 30 uM): 17.75

Structure (SMILES): CC(C)NCC(O)c1ccc(NS(C)(=O)=O)cc1 (centres undefined) [SOTALOL]
FPD measurement [4, 8]: 5 Values Out Of 5 Were Excluded Due To Quiescence Or 0 Apdc
FPDc [4, 8]: 22.36
FPD measurement ([4]; 1 µM, concentration (um) 1 uM): 5 Values Out Of 5 Were Excluded Due To Quiescence Or 0 Apdc
FPDc ([4]; 1 µM, concentration (um) 1 uM): 20.88
FPD measurement [4, 9]: 5 Values Out Of 5 Were Excluded Due To Quiescence Or 0 Apdc
FPDc [4, 9]: 24.73
FPD measurement [4, 10]: More Than Half The Wells Had A Quiescence Event Or Apdc Readings Of 0
FPDc [4, 10]: More Than Half The Wells Had A Quiescence Event Or Fpdc Readings Of 0
FPD measurement [5, 8]: 50.96 FPDc
FPDc [5, 8]: 6 Values Out Of 6 Were Excluded Due To Quiescence Or 0 Fpdc
FPD measurement ([5]; 1 µM, concentration (um) 1 uM): 54.95 FPDc
FPDc ([5]; 1 µM, concentration (um) 1 uM): 6 Values Out Of 6 Were Excluded Due To Quiescence Or 0 Fpdc
FPD measurement [5, 9]: 164 FPDc
FPDc [5, 9]: 6 Values Out Of 6 Were Excluded Due To Quiescence Or 0 Fpdc
FPDc [5, 10]: 6 Values Out Of 6 Were Excluded Due To Quiescence Or 0 Fpdc
FPD measurement [3, 8]: 5 Values Out Of 5 Were Excluded Due To Quiescence Or 0 Apdc
FPDc [3, 8]: 44.43
FPD measurement ([3]; 1 µM, concentration (um) 1 uM): 5 Values Out Of 5 Were Excluded Due To Quiescence Or 0 Apdc
FPDc ([3]; 1 µM, concentration (um) 1 uM): 41.07
FPD measurement [3, 9]: 5 Values Out Of 5 Were Excluded Due To Quiescence Or 0 Apdc
FPDc [3, 9]: 57.04
FPD measurement [3, 10]: 5 Values Out Of 5 Were Excluded Due To Quiescence Or 0 Apdc
FPDc [3, 10]: 45.01
APDc ([6]; 0.1 µM): 62.02
FPD measurement ([6]; 0.1 µM): 62.02 FPDc
APDc ([6]; 1 µM): 63.35
FPD measurement ([6]; 1 µM): 63.35 FPDc
APDc ([6]; 10 µM): 71.54
FPD measurement ([6]; 10 µM): 71.54 FPDc
APDc ([6]; 100 µM): 79.39
FPD measurement ([6]; 100 µM): 79.39 FPDc

Structure (SMILES): CC/C(=C(\c1ccccc1)c1ccc(OCCN(C)C)cc1)c1ccccc1 [TAMOXIFEN]
FPD measurement [4, 11]: 5 Values Out Of 5 Were Excluded Due To Quiescence Or 0 Apdc
FPDc [4, 11]: 19.16
FPD measurement [4, 12]: 5 Values Out Of 5 Were Excluded Due To Quiescence Or 0 Apdc
FPDc [4, 12]: 19.98
FPD measurement [4, 13]: 5 Values Out Of 5 Were Excluded Due To Quiescence Or 0 Apdc
FPDc [4, 13]: 19.22
FPD measurement ([4]; 3 µM, concentration (um) 3 uM): 5 Values Out Of 5 Were Excluded Due To Quiescence Or 0 Apdc
FPDc ([4]; 3 µM, concentration (um) 3 uM): 16.9
FPD measurement [5, 11]: 46.23 FPDc
FPDc [5, 11]: 6 Values Out Of 6 Were Excluded Due To Quiescence Or 0 Fpdc
FPD measurement [5, 12]: 47.89 FPDc
FPDc [5, 12]: 6 Values Out Of 6 Were Excluded Due To Quiescence Or 0 Fpdc
FPD measurement [5, 13]: 110.7 FPDc
FPDc [5, 13]: 6 Values Out Of 6 Were Excluded Due To Quiescence Or 0 Fpdc
FPDc ([5]; 3 µM, concentration (um) 3 uM): 6 Values Out Of 6 Were Excluded Due To Quiescence Or 0 Fpdc
FPD measurement [3, 11]: 5 Values Out Of 5 Were Excluded Due To Quiescence Or 0 Apdc
FPDc [3, 11]: 53.17
FPD measurement [3, 12]: 5 Values Out Of 5 Were Excluded Due To Quiescence Or 0 Apdc
FPDc [3, 12]: 49.96
FPD measurement [3, 13]: 5 Values Out Of 5 Were Excluded Due To Quiescence Or 0 Apdc
FPDc [3, 13]: 53.33
FPD measurement ([3]; 3 µM, concentration (um) 3 uM): 5 Values Out Of 5 Were Excluded Due To Quiescence Or 0 Apdc
FPDc ([3]; 3 µM, concentration (um) 3 uM): 51.88

The next lines start with results.

FPDc [4, 8]: 23.9
FPDc ([4]; 1 µM, concentration (um) 1 uM): 22.6
FPDc [4, 9]: 23.41
FPD measurement [5, 8]: 51.73 FPDc
FPD measurement ([5]; 1 µM, concentration (um) 1 uM): 54.52 FPDc
FPD measurement [5, 9]: 75.35 FPDc
FPDc [3, 8]: 63.44
FPDc ([3]; 1 µM, concentration (um) 1 uM): 57.19
FPDc [3, 9]: 48.79
FPDc [3, 10]: 47.75
APDc ([6]; 0.1 µM): 65.99
FPD measurement ([6]; 0.1 µM): 65.99 FPDc
APDc ([6]; 1 µM): 53.66
FPD measurement ([6]; 1 µM): 53.66 FPDc
APDc ([6]; 10 µM): 57.23
FPD measurement ([6]; 10 µM): 57.23 FPDc
APDc ([6]; 100 µM): 60.49
FPD measurement ([6]; 100 µM): 60.49 FPDc
Structure (SMILES): COc1ccccc1OCC(O)CN1CCN(CC(=O)Nc2c(C)cccc2C)CC1 (centres undefined) [RANOLAZINE]
FPD measurement [4, 8]: 5 Values Out Of 5 Were Excluded Due To Quiescence Or 0 Apdc
FPD measurement ([4]; 1 µM, concentration (um) 1 uM): 5 Values Out Of 5 Were Excluded Due To Quiescence Or 0 Apdc
FPD measurement [4, 9]: 5 Values Out Of 5 Were Excluded Due To Quiescence Or 0 Apdc
FPD measurement [4, 10]: More Than Half The Wells Had A Quiescence Event Or Apdc Readings Of 0
FPDc [4, 10]: More Than Half The Wells Had A Quiescence Event Or Fpdc Readings Of 0
FPDc [5, 8]: 6 Values Out Of 6 Were Excluded Due To Quiescence Or 0 Fpdc
FPDc ([5]; 1 µM, concentration (um) 1 uM): 6 Values Out Of 6 Were Excluded Due To Quiescence Or 0 Fpdc
FPDc [5, 9]: 6 Values Out Of 6 Were Excluded Due To Quiescence Or 0 Fpdc
FPDc [5, 10]: 6 Values Out Of 6 Were Excluded Due To Quiescence Or 0 Fpdc
FPD measurement ([3]; 1 µM, concentration (um) 1 uM): 5 Values Out Of 5 Were Excluded Due To Quiescence Or 0 Apdc

FPDc [4, 14]: 21.62
FPDc [4, 8]: 20.73
FPDc ([4]; 1 µM, concentration (um) 1 uM): 22.97
FPD measurement [5, 14]: 50.93 FPDc
FPD measurement [5, 8]: 55.37 FPDc
FPD measurement ([5]; 1 µM, concentration (um) 1 uM): 118.9 FPDc
FPDc [3, 14]: 55.57
FPDc [3, 8]: 48.34
FPDc ([3]; 1 µM, concentration (um) 1 uM): 57.73
FPDc [3, 9]: 73.71
APDc ([6]; 0.01 µM): 51.06
FPD measurement ([6]; 0.01 µM): 51.06 FPDc
APDc ([6]; 0.1 µM): 61.45
FPD measurement ([6]; 0.1 µM): 61.45 FPDc
APDc ([6]; 1 µM): 63.98
FPD measurement ([6]; 1 µM): 63.98 FPDc
APDc ([6]; 10 µM): 78.14
FPD measurement ([6]; 10 µM): 78.14 FPDc
Structure (SMILES): COc1cc2c(Nc3ccc(Br)cc3F)ncnc2cc1OCC1CCN(C)CC1 [VANDETANIB]
FPD measurement [4, 14]: 5 Values Out Of 5 Were Excluded Due To Quiescence Or 0 Apdc
FPD measurement [4, 8]: 5 Values Out Of 5 Were Excluded Due To Quiescence Or 0 Apdc
FPD measurement ([4]; 1 µM, concentration (um) 1 uM): 5 Values Out Of 5 Were Excluded Due To Quiescence Or 0 Apdc
FPD measurement [4, 9]: 5 Values Out Of 5 Were Excluded Due To Quiescence Or 0 Apdc
FPDc [4, 9]: 5 Values Out Of 5 Were Excluded Due To Quiescence Or 0 Fpdc
FPDc [5, 14]: 6 Values Out Of 6 Were Excluded Due To Quiescence Or 0 Fpdc
FPDc [5, 8]: 6 Values Out Of 6 Were Excluded Due To Quiescence Or 0 Fpdc
FPDc ([5]; 1 µM, concentration (um) 1 uM): 6 Values Out Of 6 Were Excluded Due To Quiescence Or 0 Fpdc
FPDc [5, 9]: 6 Values Out Of 6 Were Excluded Due To Quiescence Or 0 Fpdc
FPD measurement [3, 14]: 5 Values Out Of 5 Were Excluded Due To Quiescence Or 0 Apdc
FPD measurement [3, 8]: 5 Values Out Of 5 Were Excluded Due To Quiescence Or 0 Apdc
FPD measurement ([3]; 1 µM, concentration (um) 1 uM): 5 Values Out Of 5 Were Excluded Due To Quiescence Or 0 Apdc
FPD measurement [3, 9]: 5 Values Out Of 5 Were Excluded Due To Quiescence Or 0 Apdc

Reference: ChEMBL document CHEMBL4295262, “Evaluation of the utility of stem-cell derived cardiomyocytes for drug proarrhythmic potential” (2019)
